Patent publication US20240293537A1, “A[…]-GRAFTED LAURYL GAMMA-POL[…] USE THEREOF” (JIANGSU ACADEMY OF AGRICULTURAL SCIENCES, priority 2021, published 2024)

Columns and labels:
Female Balb/c mice = conditions: as adjuvant with OVA, 200 μL/mouse, serum 28 days after inoculation
Description: In addition, 500 μg/mL of an OVA solution (abbreviated as OVA) was prepared by taking a PBS buffer with a pH of 7.4 as a solvent; 100 μg/mL of an FIP solution (abbreviated as FIP) was prepared by taking a PBS buffer with a pH of 7.4 as a solvent.
After inoculation, the skin condition of the injection site was observed over one week. Blood was collected from the orbit 28 days after inoculation, and sera were separated and the antibody titer was measured.
The antibody titer was measured by adopting the following method: 10 μg/mL of an OVA protein solution was prepared by taking 0.05 mol/L of a Na2CO3—NaHCO3 buffer with a pH of 9.6 as a solvent. […]

RAW 264.7 cells = test system: RAW 264.7 cells
Description: After incubation for 24 h, the cells were pipetted, washed three times with PBS, centrifuged and finally resuspended in ice PBS before assay with flow cytometer (BD FACSCalibur flow cytometer).

Compound	IgG titer (OD450 nm) (Female Balb/c mice)	fluorescence of cells (uptake) (RAW 264.7 cells; RAW 264.7, 24 h, FIP 50 μg/mL)	fluorescence intensity of the cells with increase of FIP concentration (RAW 264.7 cells; RAW 264.7, different FIP concentrations)	solubility in acidic aqueous solution (acidic aqueous solution with a pH≤6)	solubility in solvent phase (hot DMSO and DMF solutions)
fluorescein-labeled amphiphilic imiquimod-grafted lauryl γ-polyglutamate [FIP]	2.1	a distinct fluorescence peak could still be seen	gradually increased		
CC(C)Cn1cnc2c(N)nc3ccccc3c21 [Vaccine R837, imiquimod]	3.07			can be dissolved	slightly soluble
